Data: publication PMC10298982, “Stability Characterization of the Novel Anti-Cancer HM-10/10 HDL-Mimetic Peptide” (International Journal of Molecular Sciences, 2023)
“And” between values parts separate entries of the source, which are not always exact repeats. Equal entries are not always repeated. Where two headings read alike, the source gives them in different places. Ends that are not written are not given here.

Columns and labels:
[1] = in vitro; details: cynomolgus monkey, plasma, pH 7.4
Procedure: (§1) The supernatant was removed and incubated at 37 °C for at least 10 min before use. The pH of each matrix was checked and adjusted to pH 7.4 using 10% phosphoric acid or 1 N sodium hydroxide as necessary.
(§2) Test and control article stock solutions were spiked (1.5 µL) into matrix (0.749 mL) to a final assay concentration of 2 µM and mixed. […] These tubes were sealed and incubated at 37 °C with shaking.
(§3) The quenched samples were mixed briefly by vortexing and stored in a −20 °C freezer.
(§4) Sample plates were stored refrigerated until analysis.
(§5) The column was set to a temperature of 55 °C. […] The instrument was equipped with an electrospray ionization source (500 °C) operated in positive-ion mode.
(§6) Peak area ratios for IS-normalized test article and control article counts were used to calculate the percent remaining relative to the time zero (T0) value. As appropriate, results were plotted and further analyzed to calculate half-life (T1/2) values.
(§7) Mean peak ratios were used to calculate the percent remaining relative to the T0 value: % Remaining at Timex = (mean peak area ratio Tx/mean peak ratio T0) × 100.

[2] = Metabolic stability in cryopreserved CD-1 mouse hepatocytes; type: in vitro ADME; details: CD-1 mouse hepatocytes 0.5 million cells/mL; for CLint scaled: mouse, hepatocytes, 2 μM
[3] = Metabolic stability in beagle dog liver microsomes; type: in vitro ADME; details: for CLint scaled: dog, microsomes, Beagle dog liver microsomes 0.5 mg protein/mL, 2 μM
[4] = target: T1, CYP2C8 (Homo sapiens, UniProt P10632); details: microsomes
T1 sequence (P10632 1-490): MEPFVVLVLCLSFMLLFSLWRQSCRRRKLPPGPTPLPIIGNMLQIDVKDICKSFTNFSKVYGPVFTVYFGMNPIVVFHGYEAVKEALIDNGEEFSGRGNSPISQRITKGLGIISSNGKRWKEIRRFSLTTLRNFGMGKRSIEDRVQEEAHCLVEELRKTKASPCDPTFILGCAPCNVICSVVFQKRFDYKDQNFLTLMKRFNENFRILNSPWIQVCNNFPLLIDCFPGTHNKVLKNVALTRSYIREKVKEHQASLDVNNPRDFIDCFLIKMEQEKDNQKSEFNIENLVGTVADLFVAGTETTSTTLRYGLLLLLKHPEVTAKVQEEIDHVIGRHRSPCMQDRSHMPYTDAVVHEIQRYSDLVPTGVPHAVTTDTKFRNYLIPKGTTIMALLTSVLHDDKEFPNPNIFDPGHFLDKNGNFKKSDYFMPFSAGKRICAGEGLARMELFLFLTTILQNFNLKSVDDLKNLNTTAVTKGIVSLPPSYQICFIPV

[5] = Protein binding in Sprague-Dawley rat plasma (ultracentrifugation); details: Sprague-Dawley, rat, plasma (K2EDTA), pH 7.4
[6] = test system: Sprague-Dawley rat plasma proteins; test: as above; details: Sprague-Dawley rat plasma (K2EDTA), 2 μM
[7] = Metabolic stability in cryopreserved beagle dog hepatocytes; type: in vitro ADME; details: Beagle dog hepatocytes 0.5 million cells/mL; for CLint scaled: dog, hepatocytes, 2 μM
[8] = Stability in simulated gastric fluid (SGF); type: in vitro ADME; details: SGF pH 1.3
Procedure: When developing any potentially oral-route pharmaceutical agent, the denaturing and pepsin-rich environment of the stomach must be considered. The stability of HM-10/10 was tested in simulated gastric fluid (SGF) and simulated intestinal fluid (SIF) over 120 min. […] Samples were tested at 2 μM.
For the HM-10/10 stability assay in simulated gastric and intestinal fluids, propantheline was used to confirm retention time and carbutamide was used as the internal standard for calculations.

[9] = test system: CD-1 mouse plasma proteins; test: Protein binding in CD-1 mouse plasma (ultracentrifugation); details: CD-1 mouse plasma (K2EDTA); 2 μM; 2.5 h at 37 °C
[10] = as above; details: CD-1, mouse, plasma (K2EDTA)
[11] = in vitro; details: Sprague-Dawley, rat, plasma, pH 7.4
Procedure: as §1, §2, §3, §4, §5, §6, §7

[12] = Stability in potassium phosphate buffers of pH 1.3, 5.5 and 7.4; type: physicochemical; details: potassium phosphate buffer; for remaining at 1 h, 2 µM: read-out: % Remaining at 60 min
Procedure: The stability of HM-10/10 under varying pH conditions was determined by adding the compound to potassium phosphate buffers of pH 1.3 (acidic), 5.5 (slightly acidic), and 7.4 (physiological pH), with 7-Ethoxycoumarin used as a control article. Under acidic and slightly acidic conditions, the half-life of HM-10/10 could not be determined, as the percentage of HM-10/10 was higher at the end of the time course than at the beginning (Table 3, Figure 3). […] Samples were tested at 2 µM.
The instrument was equipped with an electrospray ionization source (600 °C) operated in the positive-ion mode.

[13] = Protein binding in human plasma (ultracentrifugation); type: in vitro ADME; details: pH 7.4, Human plasma (K2EDTA)
[14] = test system: human plasma proteins; test: as above; type: in vitro ADME; details: Human plasma (K2EDTA); 2 μM; 2.5 h at 37 °C
[15] = in vitro; details: human, plasma, pH 7.4
Procedure: as §1, §2, §3, §4, §5, §6, §7

[16] = target: T2, CYP1A2 (Homo sapiens, UniProt P05177); details: microsomes
T2 sequence (P05177 1-516): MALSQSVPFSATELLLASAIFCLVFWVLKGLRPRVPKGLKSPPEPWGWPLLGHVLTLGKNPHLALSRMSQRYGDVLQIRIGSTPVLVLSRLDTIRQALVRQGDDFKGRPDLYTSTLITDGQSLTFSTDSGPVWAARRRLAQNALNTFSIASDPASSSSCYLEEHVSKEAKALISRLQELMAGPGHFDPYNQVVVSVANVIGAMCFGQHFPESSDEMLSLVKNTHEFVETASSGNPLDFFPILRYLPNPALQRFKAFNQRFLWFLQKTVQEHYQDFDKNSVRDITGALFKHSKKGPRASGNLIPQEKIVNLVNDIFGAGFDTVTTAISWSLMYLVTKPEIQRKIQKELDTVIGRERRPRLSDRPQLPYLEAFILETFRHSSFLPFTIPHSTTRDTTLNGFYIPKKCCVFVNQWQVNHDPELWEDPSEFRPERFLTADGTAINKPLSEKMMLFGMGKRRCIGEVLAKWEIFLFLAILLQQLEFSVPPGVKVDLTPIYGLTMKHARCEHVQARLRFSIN

[17] = cryopreserved hepatocytes, read-out: % Remaining at 30 min
[18] = read-out: CLint (L/hr/kg) (converted)

LRKLRKRLLRLVGRQLEEFL [HM-10/10, LRKLRKRLLRLVGRQLEEFL]
half-life at 2 µM [1]: 0.878 h
remaining at 2 h, 2 µM [1]: 21.9%
half-life at 2 µM ([2]; cryopreserved hepatocytes): < 0.25 h
remaining at 0.5 h, 2 µM [2, 17]: 0.7%
CLint scaled ([2]; read-out: CLint (L/hr/kg)): > 65.5 L/h/kg
CLint scaled ([2]; read-out: CLint (mL/min/kg)): > 65.4 L/h/kg
CLint scaled [3, 18]: 2.83 L/h/kg
CLint scaled ([3]; read-out: CLint (mL/min/kg)): 2.83 L/h/kg
half-life at 2 µM ([3]; pooled liver microsomes, pH 7.4, Beagle dog liver microsomes 0.5 mg protein/mL): 0.55 h
remaining at 2 h, 2 µM ([3]; pooled liver microsomes, pH 7.4, Beagle dog liver microsomes 0.5 mg protein/mL, read-out: % Remaining at 120 min): 1.5%
% Inhibition at 50 µM No PI + NADPH [4]: 18.7%
% Inhibition at 50 µM No PI − NADPH [4]: 14.0%
% Inhibition at 50 µM PI + NADPH [4]: 9.0%
% Inhibition at 50 µM PI − NADPH [4]: 11.4%
fraction unbound at 2.5 h, 2 µM [5]: 0.672 ± 0.094
% Stability in Matrix (2.5 h) ([6]; 37 °C): 36.6%
% Protein Bound Mean ± SD ([6]; 2.5 h at 37 °C): 32.8 ± 9.4%
% Protein Free Mean ± SD ([6]; 2.5 h at 37 °C): 67.2 ± 9.4%
half-life at 2 µM ([7]; cryopreserved hepatocytes): 0.178 h
remaining at 0.5 h, 2 µM [7, 17]: 16%
CLint scaled [7, 18]: 42 L/h/kg
CLint scaled ([7]; read-out: CLint (mL/min/kg)): 41.9 L/h/kg
half-life at 2 µM [8]: 6.2 h
% Protein Bound Mean ± SD [9]: 15.3% and 15.3 ± 24.6%
% Protein Free Mean ± SD [9]: 84.7 ± 24.6%
remaining at 2.5 h, 2 µM ([10]; pH 7.4): 14.6%
fraction unbound at 2.5 h, 2 µM ([10]; pH 7.4, Fu (Unbound Fraction) Mean ± SD, CD-1 mouse plasma (K2EDTA), 2 μM, 2.5 h at 37 °C): 0.847 ± 0.246
half-life at 2 µM [11]: 1.38 h
remaining at 2 h, 2 µM [11]: 36.3%
half-life at 2 µM ([12]; Acidic (pH 1.3)): > 2 h
remaining at 1 h, 2 µM ([12]; Acidic (pH 1.3)): 156%
half-life at 2 µM ([12]; Physiological pH (pH 7.4)): 7.22 h
remaining at 1 h, 2 µM ([12]; Physiological pH (pH 7.4)): 81.4%
half-life at 2 µM ([12]; Slightly Acidic (pH 5.5)): > 2 h
remaining at 1 h, 2 µM ([12]; Slightly Acidic (pH 5.5)): 136%
remaining at 2.5 h, 2 µM ([13]; 37 °C, read-out: % Stability in Matrix (2.5 h)): 88.5%
fraction unbound at 2.5 h, 2 µM ([13]; 2.5 h at 37 °C, read-out: Fu (Unbound Fraction) Mean ± SD): 0.203 ± 0.055
% Protein Bound Mean ± SD [14]: 79.7% and 79.7 ± 5.5%
% Protein Free Mean ± SD [14]: 20.3 ± 5.5%
half-life at 2 µM [15]: 2.73 h
remaining at 2 h, 2 µM [15]: 64.5%
% Inhibition at 50 µM No PI + NADPH [16]: −18.0%
% Inhibition at 50 µM No PI − NADPH [16]: −20.7%
% Inhibition at 50 µM PI + NADPH [16]: 0.1%
% Inhibition at 50 µM PI − NADPH [16]: −15.8%
